Data: US5650428A, “Arylsulfonamide derivative and pharmaceutical compositions and use thereof” (NKK Corporation, priority 1993, dated 1997)

Tests used:
[1] = test system: rat platelet; experiment: Inhibitory activity of aggregation in rat platelet; format: cell-based; details: rat platelet rich plasma, arachidonic acid (final concentration 0.5 mM) as inducer; read-out: C: Inhibitory activity of aggregation in rat platelet (IC50; μM)
In short: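 Platelet-rich plasma was prepared from citrated (0.38% final) rat abdominal arterial blood and preincubated 1 min at 37°C. Compound was added 2 min before arachidonic acid (0.5 mM final). Light transmission change was recorded for 5 min.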

[2] = biological target: T1, isolated rat artery (thoracic aorta) (Rattus norvegicus, UniProt P34978); experiment: Inhibitory activity of vasoconstriction of isolated rat artery; format: cell-based; details: pA2; rat thoracic aorta ring preparation, 37° C.; read-out: B: Inhibitory activity of vasoconstriction (rat artery) (pA2) (converted)
T1 construct: the thoracic aorta was quickly removed; from tissue; host or cells: thoracic aorta rings of male Wistar rats, endothelium 'gently cleaned'
T1 sequence (P34978 1-341): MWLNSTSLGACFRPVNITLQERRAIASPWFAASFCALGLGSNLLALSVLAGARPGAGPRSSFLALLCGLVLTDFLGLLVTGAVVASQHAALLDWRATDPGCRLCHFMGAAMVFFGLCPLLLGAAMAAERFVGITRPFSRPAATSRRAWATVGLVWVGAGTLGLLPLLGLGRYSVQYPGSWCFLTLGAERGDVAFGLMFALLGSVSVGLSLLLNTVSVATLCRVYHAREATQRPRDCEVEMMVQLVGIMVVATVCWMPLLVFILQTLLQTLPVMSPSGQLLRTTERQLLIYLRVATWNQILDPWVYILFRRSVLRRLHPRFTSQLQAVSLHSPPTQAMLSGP
Procedure: (2) Inhibitory Activity of Vasoconstriction of Isolated Rat Artery
Rats (Wistar; male; body weight=250-300 g) were stunned by a blow to the head and exsanguinated. Then, the thoracic aorta was quickly removed, and the connective tissue and the endothelium were gently cleaned and then ring preparation was cut. The preparations were suspended in a 25 ml organ bath which was maintained at 37° C. under an aeration of 95% O2 -5% CO2. An initial tension of 1.5 g was applied and preincubation was performed for 60 minutes. The organ bath was filled with Krebs-Henselait solution (NaCl=118, KCl=4.7, CaCl2 2.55, MgSO4 =1.18, KH2 PO4 =1.18, NaHCO3 =24.88, glucose=11.1). The constriction of the samples was ionotropicaly measured using an isometric transducer (UL-10GR, Minebea) and an amplifier (6M92, NEC SANEI) and recorded by a recticorder (RECTI-HORIZ-8K, NEC SANEI).

[3] = biological target: T2, thromboxane A2 (TxA2) receptor (Cavia porcellus, UniProt A0A286Y4I8); experiment: TxA2 antagonist action by binding assay; details: washed guinea pig platelets, 1 nM [3H]-SQ29,548, 45 minutes at 25° C.
T2 construct: to obtain washed platelets; from tissue; host or cells: washed platelets of male Hartley guinea pigs
T2 sequence (A0A286Y4I8 1-347): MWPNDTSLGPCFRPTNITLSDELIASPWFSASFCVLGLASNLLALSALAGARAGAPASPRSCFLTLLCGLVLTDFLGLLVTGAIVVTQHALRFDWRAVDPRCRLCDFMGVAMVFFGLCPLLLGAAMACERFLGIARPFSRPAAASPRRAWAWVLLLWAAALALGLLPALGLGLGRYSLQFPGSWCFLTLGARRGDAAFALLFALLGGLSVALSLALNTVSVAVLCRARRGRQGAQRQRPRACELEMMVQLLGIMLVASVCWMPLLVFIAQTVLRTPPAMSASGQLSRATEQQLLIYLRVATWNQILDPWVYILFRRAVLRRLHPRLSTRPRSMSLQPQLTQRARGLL
In short: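 Washed platelets from male Hartley guinea pigs, 4×10^8 cells/ml, were incubated with test compound and a labelled ligand for 45 minutes at 25 °C. Bound radioactivity was collected by GF/B filtration and scintillation counting; IC50 came from binding/control-binding ratio.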

IC50 [1]	Kb [2]	IC50 [3]	Structure (SMILES)
0.52 µM	28.8 nM	0.5 µM	O=C(O)c1ccc(NC(=O)C(COC2CCCCO2)NS(=O)(=O)c2ccc(Cl)cc2)cc1 (racemic) [Example 40, (RS)-N-(4-carboxyphenyl)-2-(4-chlorobenzenesulfonylamino)-3-(tetrahydropyran-2-yloxy)propanamide]
–	12.6 nM	0.2 µM	O=C(O)c1ccc(NC(=O)[C@H](COC2CCCCO2)NS(=O)(=O)c2ccc(Cl)cc2)cc1 (stereo partly drawn) [Example 39, (S)-N-(4-carboxyphenyl)-2-(4-chlorobenzenesulfonylamino)-3-(tetrahydropyran-2-yloxy)propanamide]
0.54 µM	12.9 nM	0.088 µM	O=C(O)CCc1ccc(NC(=O)C(COC2CCCCO2)NS(=O)(=O)c2ccc(Cl)cc2)cc1 (racemic) [Example 42, (RS)-N-(4-(2-carboxyethyl)phenyl)-2-(4-chlorobenzenesulfonylamino)-3-(tetrahydropyran-2-yloxy)propanamide]
0.17 µM	5.89 nM	0.033 µM	O=C(O)Cc1ccc(NC(=O)C(COC2CCCCO2)NS(=O)(=O)c2ccc(Br)cc2)cc1 (racemic) [Example 54, (RS)-2-(4-bromobenzenesulfonylamino)-N-(4-(carboxymethyl)phenyl)-3-(tetrahydropyran-2-yloxy)propanamide]
0.53 µM	3.8 nM	0.016 µM	O=C(O)Cc1ccc(NC(=O)C(COC2CCCCO2)NS(=O)(=O)c2ccc(I)cc2)cc1 (racemic) [Example 55, (RS)-N-(4-(carboxymethyl)phenyl)-2-(4-iodobenzenesulfonylamino)-3-(tetrahydropyran-2-yloxy)propanamide]
0.18 µM	6.92 nM	0.057 µM	O=C(O)Cc1ccc(NC(=O)C(COC2CCCCO2)NS(=O)(=O)c2ccc(Cl)cc2)cc1 (racemic) [Example 41, (RS)-N-(4-(carboxymethyl)phenyl)-2-(4-chlorobenzenesulfonylamino)-3-(tetrahydropyran-2-yloxy)propanamide]
1.7 µM	126 nM	2 µM	O=C(O)COc1ccc(CCNS(=O)(=O)c2ccc(Cl)cc2)cc1 [Control Compound, 4-[2-(4-chlorobenzenesulfonylamino)ethyl]-phenoxy acetic acid, reference compound]
–	41.7 nM	–	O=C(O)c1cccc(NC(=O)[C@H](COC2CCCCO2)NS(=O)(=O)c2ccc(Cl)cc2)c1 (stereo partly drawn) [Example 43, (S)-N-(3-carboxyphenyl)-2-(4-chlorobenzenesulfonylamino)-3-(tetrahydropyran-2-yloxy)propanamide]
0.3 µM	32.4 nM	0.4 µM	O=C(O)c1cccc(NC(=O)C(COC2CCCCO2)NS(=O)(=O)c2ccc(Cl)cc2)c1 (racemic) [Example 44, (RS)-N-(3-carboxyphenyl)-2-(4-chlorobenzenesulfonylamino)-3-(tetrahydropyran-2-yloxy) propanamide]
